The values below come from patent US4284639A, “Combating fungi with 1-phenoxy-2-(2,4-dichlorophenyl)-1-(1,2,4-triazol-1-yl)-ethan-2-ones and -ols” (Bayer Aktiengesellschaft, priority 1977, dated 1981).

In brackets after ≈: the same amount, converted by molar mass. Where two headings read alike, the source gives them in different places.

The test system of assay [1] is Erysiphe graminis var. hordei. In words: Shoot treatment test/powdery mildew of cereal/protective (leaf-destructive mycosis). It counts as in vivo. The conditions noted are these: 0.025 % by weight active compound in the spray liquor; barley; after 6 days; protective. As to the method:
To produce a suitable preparation of active compound, 0.25 part by weight of active compound was taken up in 25 parts by weight of dimethylformamide and 0.06 part by weight of alkylaryl polyglycol ether; 975 parts by weight of water were then added. The concentrate was diluted with water to the desired final concentration of the spray liquor.
To test for protective activity, single-leaved young barley plants of the Amsel variety were sprayed with the preparation of active compound until dew-moist. After drying, the barley plants were dusted with spores of Erysiphe graminis var. hordei.
After 6 days' dwell time of the plants at a temperature of 21°-22° C. and 80-90% atmospheric humidity the occurrence of mildew pustules on the plants was evaluated. The degree of infection was expressed as a percentage of the infection of the untreated control plants. 0% denoted no infection and 100% denoted the same degree of infection as in the case of the untreated control.

In assay [2] the test system is Puccinia recondita. In words: Shoot treatment test/cereal rust (leaf-destructive mycosis)/protective. It is filed as in vivo. Conditions: 0.025 % by weight active compound in the spray liquor; wheat; after 10 days; protective. The procedure: To produce a suitable preparation of active compound, 0.25 part by weight of active compound was taken up in 25 parts by weight of dimethylformamide and 0.06 part by weight of alkylaryl polyglycol ether and then 975 parts by weight of water were added. The concentrate was diluted with water to the desired final concentration of the spray liquor.
To test the protective activity, one-leaved young wheat plants of the Michigan Amber variety were inoculated with a uredospore suspension of Puccinia recondita in 0.1% strength aqueous agar. After the spore suspension had dried on, the wheat plants were sprayed with the preparation of active compound until dew-moist and were placed, for incubation, in a greenhouse for 24 hours at about 20° C. and 100% relative atmospheric humidity.
After 10 days' dwell time of the plants at a temperature of 20° C. and 80-90% atmospheric humidity, the occurrence of rust pustules on the plant was evaluated. The degree of infection was expressed as a percentage of the infection of the untreated control plants. 0% denoted no infection and 100% denoted the same degree of infection as in the case of the untreated control.

For assay [3], the system named is Podosphaera leucotricha. In words: Podosphaera test (apple)/protective. It counts as in vivo. Conditions: apple seedlings, 10 days after inoculation, protective. The procedure:
(§1) Solvent: 4.7 parts by weight of acetone
(§2) Emulsifier: 0.3 part by weight of alkylaryl polyglycol ether
(§3) Water: 95 parts by weight
The amount of active compound required for the desired concentration of the active compound in the spray liquid was mixed with the stated amount of solvent, and the concentrate was diluted with the stated amount of water which contained the stated amount of emulsifier.
Young apple seedlings in the 4-6 leaf stage were sprayed with the spray liquid until dripping wet. The plants remained in a greenhouse for 24 hours at 20° C. and at a relative atmospheric humidity of 70%. They were then inoculated by dusting the conidia of the apple powdery mildew causative organism (Podosphaera leucotricha) and placed in a greenhouse at a temperature of 21°-23° C. and at a relative atmospheric humidity of about 70%.
10 days after the inoculation, the infection of the seedlings was determined. The assessment data were converted to % infection. 0% meant no infection; 100% meant that the plants were completely infected.

For assay [4], the system named is Erysiphe cicohiacearum. Description: Erysiphe test (cucumber)/protective. It counts as in vivo. The conditions noted are these: cucumber plants, after 12 days, protective. The procedure: as §1, §2, §3
The amount of the active compound required for the desired concentration of active compound in the spray liquid was mixed with the stated amount of solvent and the concentrate was diluted with the stated amount of water containing the stated amount of emulsifier.
Young cucumber plants with about three foliage leaves were sprayed with the spray liquid until dripping wet. The cucumber plants remained in a greenhouse for 24 hours to dry. They were then, for the purpose of inoculation, dusted with conidia of the fungus Erysiphe cicohiacearum. The plants were subsequently placed in a greenhouse at 23°-24° C. and at a relative atmospheric humidity of about 75%.
After 12 days, the infection of the cucumber plants was determined. The assessment data were converted to percent infection. 0% meant no infection; 100% meant that the plants were totally infected.

For assay [5], the system named is Trichophyton mentagr. In words: Anti-mycotic in vitro activity, series dilution test. It counts as cell-based, Trichophyton mentagrophytes. The conditions noted are these: read-out: Minimum inhibitory concentration. As to the method: (§4) The in vitro tests were carried out in a series dilution test with germ inocula of an average of 5×10^4 germs/ml of substrate. The nutrient medium was (a) for dermatophytes and moulds: Sabouraud's milieu d'epreuve and (b) for yeasts; meat extract/glucose broth.
(§5) The incubation temperature was 28° C. and the duration of incubation was 24 to 96 hours.

Assay [6] relates to Aspergillus species. The assay is described as above. It is filed as cell-based. The conditions noted are these: read-out: Minimum inhibitory concentration. As to the method:
as §4, §5

The test system of assay [7] is Candida albicans. The description is as above. It counts as cell-based. The conditions noted are these: read-out: Minimum inhibitory concentration. The procedure:
as §4, §5

The subject of assay [8] is Microsporon felineum. The description is as above. It is filed as cell-based. Conditions: read-out: Minimum inhibitory concentration. As to the method: as §4, §5
Assay [9] relates to Penicillium commune. The description is as above. It is filed as cell-based. The conditions noted are these: read-out: Minimum inhibitory concentration. As to the method: as §4, §5
Assay [10] has as its system Torulopsis glabrata. The assay is described as above. It is filed as cell-based. The conditions noted are these: Nakaseomyces glabratus; γ/ml of nutrient medium; 28° C.; 24 to 96 hours; read-out: Minimum inhibitory concentration. The procedure: as §4, §5
Setting [11] is: γ/ml of nutrient medium, 28° C., 24 to 96 hours.

Consider `CC(C)(C)C(=O)C(Oc1ccc(-c2ccc(Cl)cc2)cc1)n1cncn1` (stereo not shown) [A, reference compound], for which, in assay [1], the “Infection in % of the untreated control” value came out at 55.0%.

Consider `CC(C)(C)C(=O)C(Oc1ccc(-c2ccccc2)cc1)n1cncn1` (stereo not shown) [B, reference compound], for which the “Infection in % of the untreated control” value in [2] worked out at 33.8%.

In the case of `CC(C)(C)C(O)C(Oc1ccc(Cl)cc1Cl)n1cncn1` (stereo not shown) [C, reference compound], the “Infection in % of the untreated control” value in assay [2] came to 33.8%.

As for `Cl.O=C(c1ccc(Cl)cc1Cl)C(Oc1ccc(Cl)cc1)n1cncn1` (stereo not shown) [Compound 2, 1-(4-Chlorophenoxy)-2-(2,4-dichlorophenyl)-1-(1,2,4-triazol-1-yl)-ethan-2-one hydrochloride], the “Infection in % of the untreated control” value in assay [1] turned out to be 0.0%; in assay [2], 12.5%. The “Infection in % at an active compound concentration of 0.001%” value (from here on “Infection in % … of 0.001%”) in assay [3] stood at 25%. The “Infection in % at an active compound concentration of 0.00025%” value (“Infection in % … of 0.00025%” below) in assay [4] is 12%. In addition, the MIC in assay [5] (setting [11]) is 4 µg/mL; in [6] (setting [11]), greater than 64 µg/mL; in [7] (setting [11]), 32 µg/mL; in [8] (setting [11]) it was 32 µg/mL; in assay [9] (setting [11]), greater than 64 µg/mL.

In the case of `Cl.OC(c1ccc(Cl)cc1Cl)C(Oc1ccc(Cl)cc1)n1cncn1` (stereo not shown) [Compound 3, 1-(4-chlorophenoxy)-2-(2,4-dichlorophenyl)-1-(1,2,4-triazol-1-yl)-ethan-2-ol hydrochloride], in assay [1], the “Infection in % of the untreated control” value was found to be 7.5%. Also, in [3], the “Infection in % … of 0.001%” value was found to be 0%. The “Infection in % … of 0.00025%” value in assay [4] worked out at 6%. For the same molecule, the MIC in assay [5] (setting [11]) was 4 µg/mL; in [6] (setting [11]), 64 µg/mL; in assay [7] (setting [11]) it was 8 µg/mL; in [8] (setting [11]) it was 32 µg/mL; in [9] (setting [11]) it was greater than 64 µg/mL.

On to `O=C(c1ccc(Cl)cc1Cl)C(Oc1ccc(Cl)cc1Cl)n1cncn1` (stereo not shown) [Compound 4], for which the “Infection in % of the untreated control” value in assay [1] stood at 0.0%.

As for `O=C(c1ccc(Cl)cc1Cl)C(Oc1ccc(-c2ccccc2)cc1)n1cncn1` (stereo not shown) [Compound 5], in assay [2], the “Infection in % of the untreated control” value is 10.0%. In addition, the MIC is less than 1 µg/mL in assay [5] (setting [11]); greater than 64 µg/mL in assay [6] (setting [11]); 32 µg/mL (≈ 75.4 µM) in assay [7] (setting [11]); greater than 64 µg/mL in assay [9] (setting [11]); 32 µg/mL (≈ 75.4 µM) in [10].

For `O=C(c1ccc(Cl)cc1Cl)C(Oc1ccc(-c2ccc(Cl)cc2)cc1)n1cncn1` (stereo not shown) [Compound 6], the “Infection in % of the untreated control” value in assay [1] was 16.3%.

Regarding `OC(c1ccc(Cl)cc1Cl)C(Oc1ccc(Cl)cc1Cl)n1cncn1` (stereo not shown) [Compound 14], the “Infection in % of the untreated control” value in assay [1] was determined as 0.0%. In addition, the “Infection in % … of 0.001%” value in [3] amounted to 0%. For the same molecule, in [4], the “Infection in % … of 0.00025%” value worked out at 16%. For the same molecule, the MIC in assay [5] (setting [11]) is 4 µg/mL (≈ 9.54 µM); in assay [6] (setting [11]), 64 µg/mL (≈ 153 µM); in assay [7] (setting [11]), 8 µg/mL (≈ 19.1 µM); in [8] (setting [11]), 32 µg/mL (≈ 76.4 µM); in [9] (setting [11]), greater than 64 µg/mL; in assay [10], 32 µg/mL (≈ 76.4 µM).

For the molecule `OC(c1ccc(Cl)cc1Cl)C(Oc1ccc(-c2ccccc2)cc1)n1cncn1` (stereo not shown) [Compound 15], in assay [1], the “Infection in % of the untreated control” value is 37.5%. Further, the “Infection in % … of 0.00025%” value in assay [4] was 12%. Also, the MIC in [5] (setting [11]) was less than 1 µg/mL; in [6] (setting [11]), greater than 64 µg/mL; in [7] (setting [11]), 32 µg/mL (≈ 75.1 µM); in [8] (setting [11]), less than 1 µg/mL; in assay [9] (setting [11]), greater than 64 µg/mL; in [10], 1 µg/mL (≈ 2.35 µM).

Consider `OC(c1ccc(Cl)cc1Cl)C(Oc1ccc(-c2ccc(Cl)cc2)cc1)n1cncn1` (stereo not shown) [Compound 16], for which the “Infection in % of the untreated control” value in assay [1] amounted to 37.5%. Further, the MIC in [5] (setting [11]) was less than 1 µg/mL; in assay [6] (setting [11]) it was greater than 64 µg/mL; in [7] (setting [11]), 8 µg/mL (≈ 17.4 µM); in [8] (setting [11]), 4 µg/mL (≈ 8.68 µM); in assay [9] (setting [11]) it was greater than 64 µg/mL; in assay [10] it was 1 µg/mL (≈ 2.17 µM).

On to `CC(C)(C)C(=O)C(Oc1ccc(Cl)cc1)n1cncn1` (stereo not shown) [D, reference compound], for which the “Infection in % … of 0.001%” value in assay [3] is given as 42%. For the same molecule, the MIC was 4 µg/mL (≈ 13.6 µM) in assay [5]; 100 µg/mL (≈ 340 µM) in [6]; 40 µg/mL (≈ 136 µM) in [7]; 100 µg/mL (≈ 340 µM) in assay [8]; greater than 100 µg/mL in assay [9].

Regarding `CC(C)(C)C(O)C(Oc1ccc(-c2ccccc2)cc1)n1cncn1` (stereo not shown) [E, reference compound], in assay [4], the “Infection in % … of 0.00025%” value turned out to be 62%.

Regarding `CC(C)(C)C(=O)C(Oc1ccc(Cl)cc1Cl)n1cncn1` (stereo not shown) [F, reference compound], the MIC in assay [5] (setting [11]) is 4 µg/mL (≈ 12.2 µM); in assay [6] (setting [11]), 100 µg/mL (≈ 305 µM); in [7] (setting [11]), 40 µg/mL (≈ 122 µM); in assay [8] (setting [11]), 100 µg/mL (≈ 305 µM); in assay [9] (setting [11]), greater than 100 µg/mL.

Regarding `O=C(c1ccc(Cl)cc1)C(Oc1ccc(Cl)cc1Cl)n1cncn1` (stereo not shown) [G, reference compound], in [9] (setting [11]), the MIC was greater than 100 µg/mL.

As for `COC(=O)c1ccc(OC(C(O)C(C)(C)C)n2cncn2)cc1` (stereo not shown) [H, reference compound], the MIC in assay [5] (setting [11]) is 4 µg/mL (≈ 12.5 µM); in [6] (setting [11]), greater than 64 µg/mL; in assay [7] (setting [11]), 64 µg/mL (≈ 200 µM); in [8] (setting [11]) it was 64 µg/mL (≈ 200 µM); in [9] (setting [11]), greater than 64 µg/mL.

In the case of `OC(c1ccccc1)C(Oc1ccc(Cl)cc1)n1cncn1` (stereo not shown) [K, reference compound], the MIC was 64 µg/mL (≈ 203 µM) in assay [5] (setting [11]), 64 µg/mL (≈ 203 µM) in [7] (setting [11]) and greater than 64 µg/mL in assay [9] (setting [11]).
